Laboratory results as given in PMC10331583, “Control of fibrosis with enhanced safety via asymmetric inhibition of prolyl‐tRNA synthetase 1” (EMBO Molecular Medicine, 2023).
Values joined by “and” are separate entries in the source; they are usually repeats but may differ in a detail not shown here. Equal entries are not always repeated. Where two headings read alike, the source gives them in different places.

Legend:
[1] = test system: TNT Quick Coupled Transcription/Translation System (luciferase synthesis); assay type: biochemical; settings: for TNT-luciferase % of control: 2000 µM
WI‐26 VA4 cells [2] = test: Puromycin incorporation assay; assay type: cell-based, human
In short: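 WI‐26 VA4 cell lysates prepared in carbonate-bicarbonate buffer with protease inhibitor; 400 ng protein coated on ELISA plates 18 h at 4°C. Puromycin incorporated into proteins detected by antibody ELISA, absorbance 450 nm with 620 nm reference; outlier values excluded based on replicates and adjacent concentrations.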

WI‐26 VA4 cells [3] = test: Collagen ELISA (secreted pro‐collagen I); settings: for IC50 / activity at 0.01 µM / activity at 300 µM / activity at 0.03 µM / activity at 0.1 µM / activity at 0.3 µM / activity at 1 µM / activity at 3 µM / activity at 10 µM / activity at 30 µM / activity at 100 µM: Homo sapiens
Procedure: WI‐26 VA4 cells were seeded at 3.5 × 10^4 cells/well on 24 well plates. After 24 h, the cells were starved of serum for 6 h. Then, the cells were incubated with the indicated concentrations of compounds in the presence of TGF‐β (2 ng/ml) (R&D systems, 240‐B‐002) for 72 h. The supernatant of the cells was collected and centrifuged at 500 g for 5 min to remove cell debris. Then, the level of pro‐collagen I in the supernatant was determined using Human Pro‐collagen I alpha 1 DuoSet ELISA (R&D systems, DY6220‐05) and DuoSet ELISA Ancillary Reagent Kit 2 (R&D systems, DY008) following the manufacturer's instructions.

[4] = log(inhibitor) vs. response, variable slope (four parameters), concentration in nM
[5] = log(inhibitor) vs. response, variable slope (four parameters)

SMILES: O[C@H]1CCCN[C@@H]1CCCn1cnc2c(Cl)c(Cl)ccc21 [DWN12088]
- TNT-luciferase % of control ([1]; 2000000 nM, Experiment #1, replicates): 0.00107 % of control and -0.00501 % of control and -0.00597 % of control
- TNT-luciferase % of control ([1]; 2000000 nM, Experiment #2, replicates): 0.0153 % of control and 0.00456 % of control and 0.00807 % of control
- TNT-luciferase % of control, average ([1]; 2000000 nM, average): 0.00301 % of control
- TNT-luciferase LogIC50 (best-fit value) [1, 4]: 4.702
- IC50 ([1]; log(inhibitor) vs. response, variable slope (four parameters), unit from head concentration (nM), read-out: TNT-luciferase IC50 (best-fit value)): 50300 nM
- Puromycin, % of control, single replicate (WI‐26 VA4 cells [2]; 30000 nM, 30 µM): 67.68 % of control (2×) and 67.72 % of control (2×) and 65.74 % of control (2×) and 95.99 % of control and 94.34 % of control and 94.68 % of control
- Puromycin, % of control, single replicate (WI‐26 VA4 cells [2]; 300000 nM, 300 µM): 0.28 % of control (2×) and -0.36 % of control (2×) and 0.08 % of control (2×) and 0.75 % of control and 0.84 % of control and 0.22 % of control
- Puromycin, % of control, single replicate (WI‐26 VA4 cells [2]; 1000000 nM, 1000 µM): -0.0139 % of control (2×) and -0.24 % of control (2×) and 0.08 % of control (2×) and 0.39 % of control (2×) and 0.49 % of control
- activity at 0.3 µM (WI‐26 VA4 cells [2]; Homo sapiens, WI26VA4, read-out: Puromycin, % of control, average, 300 nM): 104%
- activity at 1 µM (WI‐26 VA4 cells [2]; Homo sapiens, WI26VA4, read-out: Puromycin, % of control, average, 1000 nM): 109%
- activity at 3 µM (WI‐26 VA4 cells [2]; Homo sapiens, WI26VA4, read-out: Puromycin, % of control, average, 3000 nM): 103%
- activity at 30 µM (WI‐26 VA4 cells [2]; Homo sapiens, WI26VA4, read-out: Puromycin, % of control, average, 30000 nM): 76.4%
- activity at 100 µM (WI‐26 VA4 cells [2]; Homo sapiens, WI26VA4, read-out: Puromycin, % of control, average, 100000 nM): 29.7%
- activity at 300 µM (WI‐26 VA4 cells [2]; Homo sapiens, WI26VA4, read-out: Puromycin, % of control, average, 300000 nM): 0.2%
- activity at 1000 µM (WI‐26 VA4 cells [2]; Homo sapiens, WI26VA4, read-out: Puromycin, % of control, average, 1000000 nM): 0.1%
- activity at 0.3 µM (WI‐26 VA4 cells [2]; Homo sapiens, WI26VA4, read-out: Puromycin, % of control, single replicate, 300 nM): 107%
- activity at 1 µM (WI‐26 VA4 cells [2]; Homo sapiens, WI26VA4, read-out: Puromycin, % of control, single replicate, 1000 nM): 107%
- activity at 3 µM (WI‐26 VA4 cells [2]; Homo sapiens, WI26VA4, read-out: Puromycin, % of control, single replicate, 3000 nM): 99.5%
- activity at 10 µM (WI‐26 VA4 cells [2]; Homo sapiens, WI26VA4, read-out: Puromycin, % of control, single replicate, 10000 nM): 98.3%
- activity at 100 µM (WI‐26 VA4 cells [2]; Homo sapiens, WI26VA4, read-out: Puromycin, % of control, single replicate, 100000 nM): 27.4%
- IC50 (WI‐26 VA4 cells [2]; Homo sapiens, WI26VA4, read-out: Puromycin, IC50 (best-fit value)): 56.8 µM
- Puromycin, HillSlope (best-fit value) (WI‐26 VA4 cells [2]; [5]): -1.616
- Puromycin, LogIC50 (best-fit value) (WI‐26 VA4 cells [2]; [4]): 4.754
- Collagen, % of control (single replicates per experiment) (WI‐26 VA4 cells [3]; 10 nM, 0.01 µM): 101.76 % of control
- Collagen, % of control (single replicates per experiment) (WI‐26 VA4 cells [3]; 30 nM, 0.03 µM): 120.03 % of control and 114.52 % of control and 91.73 % of control and 89.16 % of control and 97.48 % of control and 99.13 % of control and 133.18 % of control and 134.10 % of control
- Collagen, % of control (single replicates per experiment) (WI‐26 VA4 cells [3]; 100 nM, 0.1 µM): 111.05 % of control and 113.92 % of control and 88.23 % of control and 93.03 % of control and 102.46 % of control and 102.99 % of control and 133.45 % of control and 119.32 % of control
- Collagen, % of control (single replicates per experiment) (WI‐26 VA4 cells [3]; 300 nM, 0.3 µM): 97.76 % of control and 92.78 % of control and 92.20 % of control and 87.32 % of control and 95.43 % of control and 105.10 % of control and 105.64 % of control and 109.03 % of control
- Collagen, % of control (single replicates per experiment) (WI‐26 VA4 cells [3]; 1000 nM, 1 µM): 75.49 % of control and 75.29 % of control and 77.13 % of control and 68.65 % of control and 66.58 % of control and 66.40 % of control and 103.27 % of control and 103.19 % of control
- Collagen, % of control (single replicates per experiment) (WI‐26 VA4 cells [3]; 3000 nM, 3 µM): 24.90 % of control and 21.92 % of control
- TI (CC50/IC50 for collagen level) (WI‐26 VA4 cells [3]; Fig 1C): 10.29
- CC50/collagen IC50 (WI‐26 VA4 cells [3]; Fig 5E): 10.07
- IC50 (WI‐26 VA4 cells [3]; WI26VA4, 72 h, read-out: IC50 for collagen level): 2.02 µM
- IC50 (WI‐26 VA4 cells [3]; WI26VA4, read-out: Collagen IC50 (best-fit value)): 2.02 µM
- activity at 0.01 µM (WI‐26 VA4 cells [3]; WI26VA4, read-out: Collagen, % of control (single replicates per experiment), 10 nM): 101%
- activity at 300 µM (WI‐26 VA4 cells [3]; WI26VA4, read-out: Collagen, % of control (single replicates per experiment), 300000 nM): 3.81%
- activity at 0.01 µM (WI‐26 VA4 cells [3]; WI26VA4, read-out: Collagen, % of control, average, 10 nM, average): 101%
- activity at 0.03 µM (WI‐26 VA4 cells [3]; WI26VA4, read-out: Collagen, % of control, average, 30 nM, average): 103%
- activity at 0.1 µM (WI‐26 VA4 cells [3]; WI26VA4, read-out: Collagen, % of control, average, 100 nM, average): 105%
- activity at 0.3 µM (WI‐26 VA4 cells [3]; WI26VA4, read-out: Collagen, % of control, average, 300 nM, average): 96.4%
- activity at 1 µM (WI‐26 VA4 cells [3]; WI26VA4, read-out: Collagen, % of control, average, 1000 nM, average): 78.8%
- activity at 3 µM (WI‐26 VA4 cells [3]; WI26VA4, read-out: Collagen, % of control, average, 3000 nM, average): 37.7%
- activity at 10 µM (WI‐26 VA4 cells [3]; WI26VA4, read-out: Collagen, % of control, average, 10000 nM, average): 15%
- activity at 30 µM (WI‐26 VA4 cells [3]; WI26VA4, read-out: Collagen, % of control, average, 30000 nM, average): 5.52%
- activity at 100 µM (WI‐26 VA4 cells [3]; WI26VA4, read-out: Collagen, % of control, average, 100000 nM, average): 4.05%
- activity at 300 µM (WI‐26 VA4 cells [3]; WI26VA4, read-out: Collagen, % of control, average, 300000 nM, average): 4.51%
- activity at 0.03 µM (WI‐26 VA4 cells [3]; WI26VA4, read-out: Efficacy, % of control, average, 30 nM): 102%
- activity at 0.1 µM (WI‐26 VA4 cells [3]; WI26VA4, read-out: Efficacy, % of control, average, 100 nM): 99.4%
- activity at 0.3 µM (WI‐26 VA4 cells [3]; WI26VA4, read-out: Efficacy, % of control, average, 300 nM): 107%
- activity at 1 µM (WI‐26 VA4 cells [3]; WI26VA4, read-out: Efficacy, % of control, average, 1000 nM): 82.3%
- activity at 3 µM (WI‐26 VA4 cells [3]; WI26VA4, read-out: Efficacy, % of control, average, 3000 nM): 35.4%
- activity at 10 µM (WI‐26 VA4 cells [3]; WI26VA4, read-out: Efficacy, % of control, average, 10000 nM): 11.9%
- activity at 30 µM (WI‐26 VA4 cells [3]; WI26VA4, read-out: Efficacy, % of control, average, 30000 nM): 3.71%
- activity at 100 µM (WI‐26 VA4 cells [3]; WI26VA4, read-out: Efficacy, % of control, average, 100000 nM): 2.52%
- activity at 0.03 µM (WI‐26 VA4 cells [3]; WI26VA4, read-out: Efficacy, % of control, single replicate, 30 nM): 113%
- activity at 0.1 µM (WI‐26 VA4 cells [3]; WI26VA4, read-out: Efficacy, % of control, single replicate, 100 nM): 108%
- activity at 0.3 µM (WI‐26 VA4 cells [3]; WI26VA4, read-out: Efficacy, % of control, single replicate, 300 nM): 114%
- activity at 3 µM (WI‐26 VA4 cells [3]; WI26VA4, read-out: Efficacy, % of control, single replicate, 3000 nM): 39%
- activity at 10 µM (WI‐26 VA4 cells [3]; WI26VA4, read-out: Efficacy, % of control, single replicate, 10000 nM): 10.1%
- activity at 30 µM (WI‐26 VA4 cells [3]; WI26VA4, read-out: Efficacy, % of control, single replicate, 30000 nM): 3.03%
- IC50 (WI‐26 VA4 cells [3]; WI26VA4, read-out: IC50 for collagen level): 2 µM
- Collagen HillSlope (best-fit value) (WI‐26 VA4 cells [3]; [5]): -1.329
- Collagen LogIC50 (best-fit value) (WI‐26 VA4 cells [3]; [4]): 3.306
- Relative (CC50)/(collagen IC50) (WI‐26 VA4 cells [3]; relative to HF, Fig 5E): 3.01
